# Experimental data as given in ChEMBL document CHEMBL4251601 (Eur J Med Chem, 2018).
# Tests used:
# [1] = target: Mitogen-activated protein kinase kinase kinase 9 (Homo sapiens) (UniProt P80192); test: Inhibition of recombinant human GST-tagged MLK1 expressed in baculovirus expression system at 1 uM by Z'-Lyte assay relative to control
# [2] = target: Phosphatidylinositol 4,5-bisphosphate 3-kinase catalytic subunit beta isoform (Homo sapiens) (UniProt P42338); test: Inhibition of PI3K beta (unknown origin) at 1 uM by ADP-Glo assay relative to control
# [3] = target: Serine/threonine-protein kinase TAO2 (Homo sapiens) (UniProt Q9UL54); test: Inhibition of recombinant human GST-tagged TAOK2 expressed in baculovirus expression system at 1 uM by Z'-Lyte assay relative to control
# [4] = target: Phosphatidylinositol 4,5-bisphosphate 3-kinase catalytic subunit delta isoform (Homo sapiens) (UniProt O00329); test: Inhibition of PI3K delta (unknown origin) at 0.1 uM by ADP-Glo assay relative to control
# [5] = target: Tyrosine-protein kinase Tec (Homo sapiens) (UniProt P42680); test: Inhibition of recombinant human full length His-tagged TEC expressed in baculovirus expression system at 0.1 uM by TR-FRET assay relative to control
# [6] = target: G protein-coupled receptor kinase 5 (Homo sapiens) (UniProt P34947); test: Inhibition of recombinant human full length GST-tagged GRK5 expressed in baculovirus expression system at 0.1 uM by Z'-Lyte assay relative to control
# [7] = target: High affinity nerve growth factor receptor (Homo sapiens) (UniProt P04629); test: Inhibition of recombinant human His-tagged TRKA cytoplasmic domain expressed in baculovirus expression system at 1 uM by Z'-Lyte assay relative to control
# [8] = Tmax in CD-1 mouse brain at 10 mg/kg, po administered as single dose by LC-MS/MS analysis; assay type: ADME, organism-based
# [9] = Unbound Cmax in CD-1 mouse plasma at 10 mg/kg, po administered as single dose by LC-MS/MS analysis; assay type: ADME, organism-based; conditions: in vivo
# [10] = target: Protein-tyrosine kinase 6 (Homo sapiens) (UniProt Q13882); test: Inhibition of recombinant human full length His-tagged PTK6 expressed in baculovirus expression system at 0.1 uM by TR-FRET assay relative to control
# [11] = target: PI3-kinase p110-alpha/p85-alpha (Homo sapiens) (UniProt P27986+P42336); test: Inhibition of recombinant full-length human N-terminal His6-tagged p110alpha/p85alpha expressed in baculovirus infected Sf21 cells at 0.1 uM by ADP-Glo assay relative to control
# [12] = test system: Epidermal growth factor receptor (Homo sapiens), P00533 [L858R,T790M]; test: Inhibition of recombinant human GST-tagged EGFR T790M/L858R double mutant expressed in baculovirus expression system at 0.1 uM by TR-FRET assay relative to control
# [13] = target: Platelet-derived growth factor receptor beta (Homo sapiens) (UniProt P09619); test: Inhibition of recombinant human His-tagged PDGFRbeta cytoplasmic domain expressed in baculovirus expression system at 0.1 uM by Z'-Lyte assay relative to control
# [14] = test system: ALK tyrosine kinase receptor (Homo sapiens), Q9UM73 [C1156Y]; test: Inhibition of recombinant N-terminal GST-tagged human ALK cytoplasmic domain (1058 to 1620 residues) C1156Y mutant expressed in baculovirus expression system at 1 uM by TR-FRET assay relative to control
# [15] = target: Angiopoietin-1 receptor (Homo sapiens) (UniProt Q02763); test: Inhibition of recombinant human GST-tagged TIE2 cytoplasmic domain expressed in baculovirus expression system at 1 uM by Z'-Lyte assay relative to control
# [16] = target: Serine/threonine-protein kinase PAK 4 (Homo sapiens) (UniProt O96013); test: Inhibition of recombinant human GST-tagged PAK4 expressed in baculovirus expression system at 1 uM by Z'-Lyte assay relative to control
# [17] = Cmax in CD-1 mouse plasma at 10 mg/kg, po administered as single dose by LC-MS/MS analysis; assay type: ADME, organism-based; set-up: dose 10 mg/kg, route oral
# [18] = target: Tyrosine-protein kinase SYK (Homo sapiens) (UniProt P43405); test: Inhibition of recombinant human full length GST-tagged SYK expressed in baculovirus expression system at 0.1 uM by Z'-Lyte assay relative to control
# [19] = target: Cytoplasmic tyrosine-protein kinase BMX (Homo sapiens) (UniProt P51813); test: Inhibition of recombinant full length human His-tagged BMX expressed in baculovirus expression system at 1 uM by TR-FRET assay relative to control
# [20] = target: Aurora kinase A (Homo sapiens) (UniProt O14965); test: Inhibition of recombinant full length human His-tagged AURKA expressed in baculovirus expression system at 1 uM by Z'-Lyte assay relative to control
# [21] = Half life in Sprague-Dawley rat at 2 mg/kg, iv administered as single dose by LC-MS/MS analysis; assay type: ADME, organism-based; conditions: in vivo
# [22] = target: Dual specificity protein kinase CLK1 (Homo sapiens) (UniProt P49759); test: Inhibition of recombinant human GST-tagged CLK1 expressed in Escherichia coli at 0.1 uM by Z'-Lyte assay relative to control
# U-87 MG = test: Antitumor activity against luciferase-fused human U87MG cells orthotopically xenografted in nude mouse assessed as tumor growth inhibition at 3.125 mg/kg, po qd for 4 weeks by bioluminescence imaging relative to control; assay type: functional, U-87MG ATCC; conditions: 672 h, read-out: TGI
# [23] = target: Protein kinase C beta type (Homo sapiens) (UniProt P05771); test: Inhibition of PKCbeta2 (unknown origin) at 1 uM by Z'-Lyte assay relative to control
# [24] = target: MAP kinase-activated protein kinase 2 (Homo sapiens) (UniProt P49137); test: Inhibition of recombinant human full length His-tagged MK2 expressed in Escherichia coli at 1 uM by Z'-Lyte assay relative to control
# [25] = AUC (0 to infinity) in ICR mouse at 2 mg/kg, iv administered as single dose by LC-MS/MS analysis; assay type: ADME, organism-based; set-up: dose 2 mg/kg, time infinity, route intravenous; conditions: in vivo
# [26] = target: Angiopoietin-1 receptor (Homo sapiens) (UniProt Q02763); test: Inhibition of recombinant human GST-tagged TIE2 cytoplasmic domain expressed in baculovirus expression system at 0.1 uM by Z'-Lyte assay relative to control
# [27] = target: Proto-oncogene tyrosine-protein kinase Src (Homo sapiens) (UniProt P12931); test: Inhibition of recombinant human full length His-tagged SRC expressed in baculovirus expression system at 1 uM by Z'-Lyte assay relative to control
# [28] = target: Mitogen-activated protein kinase 1 (Homo sapiens) (UniProt P28482); test: Inhibition of recombinant human full length GST-tagged ERK2 expressed in Escherichia coli at 0.1 uM by Z'-Lyte assay relative to control
# [29] = target: Ephrin type-B receptor 2 (Homo sapiens) (UniProt P29323); test: Inhibition of recombinant human GST-tagged EPHB2 cytoplasmic domain (616 to 884 residues) expressed in baculovirus expression system at 0.1 uM by Z'-Lyte assay relative to control
# [30] = target: Tyrosine-protein kinase JAK2 (Homo sapiens) (UniProt O60674); test: Inhibition of recombinant human GST-tagged JAK2 expressed in baculovirus expression system at 0.1 uM by TR-FRET assay relative to control
# Angiopoietin-1 receptor (Homo sapiens), sequence (Q02763 whole entry, the tested form may be a part): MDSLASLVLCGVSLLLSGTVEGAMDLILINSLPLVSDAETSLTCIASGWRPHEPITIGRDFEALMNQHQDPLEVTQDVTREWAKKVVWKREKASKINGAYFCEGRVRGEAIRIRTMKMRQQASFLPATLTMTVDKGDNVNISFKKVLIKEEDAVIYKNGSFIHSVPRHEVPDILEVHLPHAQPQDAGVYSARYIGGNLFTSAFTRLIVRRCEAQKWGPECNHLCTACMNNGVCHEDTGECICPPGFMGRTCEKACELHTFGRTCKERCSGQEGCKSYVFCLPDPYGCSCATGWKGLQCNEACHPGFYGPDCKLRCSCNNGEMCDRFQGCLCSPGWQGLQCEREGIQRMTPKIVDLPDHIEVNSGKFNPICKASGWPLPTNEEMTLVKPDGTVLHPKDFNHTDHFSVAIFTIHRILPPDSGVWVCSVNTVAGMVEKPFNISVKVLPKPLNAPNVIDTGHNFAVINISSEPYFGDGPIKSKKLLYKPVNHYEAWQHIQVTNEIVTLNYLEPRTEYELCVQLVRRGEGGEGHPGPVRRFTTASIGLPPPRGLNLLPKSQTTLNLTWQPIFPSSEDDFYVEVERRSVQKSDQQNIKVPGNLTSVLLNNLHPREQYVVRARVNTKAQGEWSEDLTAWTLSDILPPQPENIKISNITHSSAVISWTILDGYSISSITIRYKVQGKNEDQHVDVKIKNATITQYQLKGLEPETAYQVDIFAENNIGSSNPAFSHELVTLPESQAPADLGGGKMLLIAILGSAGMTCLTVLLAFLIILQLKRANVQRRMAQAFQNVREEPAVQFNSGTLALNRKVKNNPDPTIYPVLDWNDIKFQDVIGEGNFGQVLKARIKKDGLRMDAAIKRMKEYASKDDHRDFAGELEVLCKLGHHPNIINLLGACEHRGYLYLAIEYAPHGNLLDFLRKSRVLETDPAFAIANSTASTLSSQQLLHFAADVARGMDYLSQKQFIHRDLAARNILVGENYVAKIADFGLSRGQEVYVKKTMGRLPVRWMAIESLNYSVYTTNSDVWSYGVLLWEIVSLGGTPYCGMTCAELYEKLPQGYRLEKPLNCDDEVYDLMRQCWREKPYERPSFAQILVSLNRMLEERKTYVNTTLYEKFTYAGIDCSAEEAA
# Epidermal growth factor receptor (Homo sapiens), P00533 [L858R,T790M], sequence (P00533 whole entry T790M/L858R, looked up, the tested form may be a part): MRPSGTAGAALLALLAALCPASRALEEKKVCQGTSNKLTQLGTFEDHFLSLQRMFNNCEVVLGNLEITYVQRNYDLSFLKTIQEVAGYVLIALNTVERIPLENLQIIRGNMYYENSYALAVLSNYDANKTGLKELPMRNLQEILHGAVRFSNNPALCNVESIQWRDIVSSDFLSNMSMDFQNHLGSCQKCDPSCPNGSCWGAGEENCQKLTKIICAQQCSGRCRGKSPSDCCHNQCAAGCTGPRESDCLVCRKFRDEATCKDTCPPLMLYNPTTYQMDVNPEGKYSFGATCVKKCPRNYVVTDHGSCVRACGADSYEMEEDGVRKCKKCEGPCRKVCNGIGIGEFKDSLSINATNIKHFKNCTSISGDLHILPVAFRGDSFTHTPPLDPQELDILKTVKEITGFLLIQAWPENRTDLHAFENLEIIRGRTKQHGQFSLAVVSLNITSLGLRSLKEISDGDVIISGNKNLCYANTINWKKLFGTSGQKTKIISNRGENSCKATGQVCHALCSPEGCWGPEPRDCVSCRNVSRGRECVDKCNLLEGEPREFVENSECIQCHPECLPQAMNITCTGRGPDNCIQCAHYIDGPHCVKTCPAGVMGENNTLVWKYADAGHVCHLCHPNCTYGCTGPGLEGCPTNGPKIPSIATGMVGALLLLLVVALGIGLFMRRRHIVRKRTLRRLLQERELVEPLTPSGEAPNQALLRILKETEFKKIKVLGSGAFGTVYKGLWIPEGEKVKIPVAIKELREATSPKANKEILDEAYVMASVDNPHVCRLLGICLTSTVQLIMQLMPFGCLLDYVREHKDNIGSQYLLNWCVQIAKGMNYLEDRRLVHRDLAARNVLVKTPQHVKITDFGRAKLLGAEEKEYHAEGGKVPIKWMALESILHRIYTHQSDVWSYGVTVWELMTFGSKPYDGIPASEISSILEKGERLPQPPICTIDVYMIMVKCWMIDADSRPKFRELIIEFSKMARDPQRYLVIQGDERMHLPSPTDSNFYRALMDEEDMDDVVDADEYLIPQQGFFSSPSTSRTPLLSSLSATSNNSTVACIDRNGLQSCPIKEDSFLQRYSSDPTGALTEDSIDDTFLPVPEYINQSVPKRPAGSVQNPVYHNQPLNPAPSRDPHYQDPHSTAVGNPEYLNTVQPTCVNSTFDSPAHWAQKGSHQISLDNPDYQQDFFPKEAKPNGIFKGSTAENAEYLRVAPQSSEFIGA
# Ephrin type-B receptor 2 (Homo sapiens), sequence (P29323 whole entry, the tested form may be a part): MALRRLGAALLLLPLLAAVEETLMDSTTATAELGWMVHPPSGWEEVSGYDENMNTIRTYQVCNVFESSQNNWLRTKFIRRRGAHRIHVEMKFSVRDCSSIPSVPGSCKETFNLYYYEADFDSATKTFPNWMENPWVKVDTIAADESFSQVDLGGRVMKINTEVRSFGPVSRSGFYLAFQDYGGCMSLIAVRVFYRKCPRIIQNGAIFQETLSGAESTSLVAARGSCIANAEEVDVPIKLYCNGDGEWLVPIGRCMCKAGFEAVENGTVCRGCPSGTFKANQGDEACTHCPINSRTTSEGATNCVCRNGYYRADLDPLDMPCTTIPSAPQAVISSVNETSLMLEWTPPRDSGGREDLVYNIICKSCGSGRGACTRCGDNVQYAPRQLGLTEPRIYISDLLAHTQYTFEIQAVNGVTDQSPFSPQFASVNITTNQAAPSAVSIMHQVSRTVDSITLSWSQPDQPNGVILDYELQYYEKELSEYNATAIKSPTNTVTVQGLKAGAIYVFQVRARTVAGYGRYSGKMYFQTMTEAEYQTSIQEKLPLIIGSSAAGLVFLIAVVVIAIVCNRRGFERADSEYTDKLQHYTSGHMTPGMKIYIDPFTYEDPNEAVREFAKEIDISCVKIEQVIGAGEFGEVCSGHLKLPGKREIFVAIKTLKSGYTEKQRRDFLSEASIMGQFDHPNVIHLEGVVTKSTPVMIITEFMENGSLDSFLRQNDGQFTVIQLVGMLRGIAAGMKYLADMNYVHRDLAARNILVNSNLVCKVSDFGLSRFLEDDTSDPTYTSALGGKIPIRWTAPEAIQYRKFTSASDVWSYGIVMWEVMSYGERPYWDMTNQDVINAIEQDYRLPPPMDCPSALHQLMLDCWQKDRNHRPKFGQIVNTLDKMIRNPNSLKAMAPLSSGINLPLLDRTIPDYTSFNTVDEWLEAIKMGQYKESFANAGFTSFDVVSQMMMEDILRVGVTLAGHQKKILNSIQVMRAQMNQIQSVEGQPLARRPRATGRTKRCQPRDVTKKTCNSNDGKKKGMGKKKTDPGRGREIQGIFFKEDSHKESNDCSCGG
# Phosphatidylinositol 4,5-bisphosphate 3-kinase catalytic subunit beta isoform (Homo sapiens), sequence (P42338 whole entry, looked up, canonical isoform): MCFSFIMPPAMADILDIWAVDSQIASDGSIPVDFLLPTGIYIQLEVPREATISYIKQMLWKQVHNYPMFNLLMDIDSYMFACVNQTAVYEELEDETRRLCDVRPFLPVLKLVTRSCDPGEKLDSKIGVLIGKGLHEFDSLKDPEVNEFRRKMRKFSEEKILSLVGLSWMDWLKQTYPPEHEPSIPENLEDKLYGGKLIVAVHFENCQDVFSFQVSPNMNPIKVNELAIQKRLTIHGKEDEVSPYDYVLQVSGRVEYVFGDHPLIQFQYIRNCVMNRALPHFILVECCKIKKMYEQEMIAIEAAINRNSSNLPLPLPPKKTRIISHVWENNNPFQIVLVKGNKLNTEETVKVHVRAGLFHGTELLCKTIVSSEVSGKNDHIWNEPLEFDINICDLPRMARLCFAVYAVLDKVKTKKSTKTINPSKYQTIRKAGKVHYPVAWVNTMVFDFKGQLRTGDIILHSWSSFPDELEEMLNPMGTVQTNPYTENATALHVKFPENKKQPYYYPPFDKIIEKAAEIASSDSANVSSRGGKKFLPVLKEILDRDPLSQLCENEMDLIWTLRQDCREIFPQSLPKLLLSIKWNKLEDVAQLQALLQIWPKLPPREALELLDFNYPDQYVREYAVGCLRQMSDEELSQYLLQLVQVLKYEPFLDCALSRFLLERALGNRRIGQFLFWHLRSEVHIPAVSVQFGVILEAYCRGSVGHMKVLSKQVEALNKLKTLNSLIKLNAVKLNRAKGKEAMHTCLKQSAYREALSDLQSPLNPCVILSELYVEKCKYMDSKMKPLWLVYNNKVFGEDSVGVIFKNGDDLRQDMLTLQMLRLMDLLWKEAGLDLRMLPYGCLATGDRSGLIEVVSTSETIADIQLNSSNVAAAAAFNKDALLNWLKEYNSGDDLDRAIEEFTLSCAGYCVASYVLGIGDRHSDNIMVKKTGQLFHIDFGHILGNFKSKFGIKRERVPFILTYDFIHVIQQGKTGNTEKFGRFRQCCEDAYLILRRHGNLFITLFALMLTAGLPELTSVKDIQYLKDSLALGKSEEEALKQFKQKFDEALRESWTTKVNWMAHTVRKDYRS
# Aurora kinase A (Homo sapiens), sequence (O14965 whole entry): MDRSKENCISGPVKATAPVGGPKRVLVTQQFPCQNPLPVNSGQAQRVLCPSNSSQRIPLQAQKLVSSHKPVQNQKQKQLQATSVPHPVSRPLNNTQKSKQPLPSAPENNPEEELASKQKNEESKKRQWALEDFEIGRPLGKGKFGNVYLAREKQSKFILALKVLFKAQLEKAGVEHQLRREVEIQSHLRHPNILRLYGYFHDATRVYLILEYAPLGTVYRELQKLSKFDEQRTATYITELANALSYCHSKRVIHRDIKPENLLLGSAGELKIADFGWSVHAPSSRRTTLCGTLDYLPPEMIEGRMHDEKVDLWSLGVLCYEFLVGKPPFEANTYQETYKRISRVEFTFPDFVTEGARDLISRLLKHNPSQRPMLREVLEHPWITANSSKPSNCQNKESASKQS
smiles,measurement,setting,value
CC1=Nc2c(F)cc(-c3nc(Nc4ccc(C5CCN(C)CC5)cn4)ncc3F)cc2C12CCCC2 [CROZBACICLIB],inhibition,[1],59%
same,inhibition,[2],11%
same,inhibition,[3],87%
same,inhibition,[4],2%
same,inhibition,[5],11%
same,inhibition,[6],-1%
same,inhibition,[7],48%
same,Tmax,[8],2 h
same,fCmax,[9],5.73 ng/mL
same,inhibition,[10],14%
same,inhibition,[11],-3%
same,inhibition,[12],27%
same,inhibition,[13],4%
same,inhibition,[14],28%
same,inhibition,[15],-2%
same,inhibition,[16],12%
same,Cmax,[17],818 ng/mL
same,inhibition,[18],5%
same,inhibition,[19],19%
same,inhibition,[20],6%
same,half-life,[21],7.1 h
same,inhibition,[22],28%
same,inhibition in vivo at 3.125 mg/kg,U-87 MG,62%
same,inhibition,[23],52%
same,inhibition,[24],-1%
same,AUC(0-inf),[25],1330 ng·h/mL
same,inhibition,[26],-6%
same,inhibition,[27],7%
same,inhibition,[28],0%
same,inhibition,[29],-8%
same,inhibition,[30],24%
